{"source": "patent US8334312B2", "about": "“Fungicidal mixtures for wood preservation” (LANXESS Deutschland GmbH, priority 2005, dated 2012)", "assay_in_all_cases": "Mycelium radial growth inhibition on malt extract/peptone agar (MIC) and Kull synergism", "assay_type_in_all_cases": "cell-based", "key": {"Coriolus versicolor": {"system": "Coriolus versicolor", "settings": "for Qa = concentration of substance A which is the MIC: 26° C. agar; for Qb = concentration of substance B which is the MIC: b = triadimefon alone", "method": "(§1) Mycelium pieces were punched out of colonies of the wood-destroying organisms Coriolus versicolor, Poria placenta, Gloeophyllum trabeum and Cornophora puteana and incubated at 26° C. on a malt extract/peptone-containing nutrient agar. Here, the growth of the fungal threads with and without added active compound was compared. The stated minimum inhibitory concentration (MIC) is the active compound concentration at which the radial growth of the fungal threads is suppressed completely. Using the method described by Kull et al. (F. C. Kull, […]. Mayer, Applied Microbiology 9, 538 to 541, 1961), the synergism was determined. Here, the following relations apply: […]"}, "Poria placenta": {"system": "Poria placenta", "settings": "26° C. agar", "method": "as §1"}, "Coniophora puteana": {"system": "Coniophora puteana", "settings": "26° C. agar", "method": "as §1"}, "Gloeophyllum trabeum": {"system": "Gloeophyllum trabeum", "method": "as §1"}}, "data": [{"smiles": "CCCC1COC(Cn2cncn2)(c2ccc(Cl)cc2Cl)O1", "note": "(centres unmarked) [propiconazole]", "values": [{"measurement": "Qa = concentration of substance A which is the MIC", "setting": "Coriolus versicolor; a = propiconazole alone", "value": 3}, {"measurement": "Qa = concentration of substance A which is the MIC", "setting": "Poria placenta; a = propiconazole alone", "value": 1}]}, {"smiles": "CC(C)(C)C(=O)C(Oc1ccc(Cl)cc1)n1cncn1", "note": "(racemic) [triadimefon, (±)-1-(4-chlorophenoxy)-3,3-dimethyl-1-(1H-1,2,4-triazol-1-yl)butan-2-one]", "values": [{"measurement": "Qb = concentration of substance B which is the MIC", "setting": "Coriolus versicolor; 26° C. agar (Example 2)", "value": 6}, {"measurement": "Qb = concentration of substance B which is the MIC", "setting": "Coriolus versicolor; 26° C. agar (Example 3)", "value": 3}, {"measurement": "Qb = concentration of substance B which is the MIC", "setting": "Poria placenta; b = triadimefon alone", "value": 3}, {"measurement": "Qb = concentration of substance B which is the MIC", "setting": "Coniophora puteana; b = triadimefon alone", "value": 30}, {"measurement": "Qb = concentration of substance B which is the MIC", "setting": "Gloeophyllum trabeum; b = triadimefon alone, 26° C. agar", "value": 30}]}, {"smiles": "CC(C)(C)C(O)(CCc1ccc(Cl)cc1)Cn1cncn1", "note": "(centres unmarked) [tebuconazole]", "values": [{"measurement": "Qa = concentration of substance A which is the MIC", "setting": "Coriolus versicolor; a = tebuconazole alone", "value": 0.3}, {"measurement": "Qb = concentration of substance B which is the MIC", "setting": "Poria placenta; b = tebuconazole alone", "value": 1}, {"measurement": "Qa = concentration of substance A which is the MIC", "setting": "Coniophora puteana; a = tebuconazole alone", "value": 6}, {"measurement": "Qa = concentration of substance A which is the MIC", "setting": "Gloeophyllum trabeum; a = tebuconazole alone, 26° C. agar (Example 3)", "value": 0.5}, {"measurement": "Qb = concentration of substance B which is the MIC", "setting": "Gloeophyllum trabeum; b = tebuconazole alone, 26° C. agar (Example 1)", "value": 0.7}]}, {"smiles": "CC(C)(C)C(O)C(Oc1ccc(Cl)cc1)n1cncn1", "note": "(racemic) [triadimenol, (±)-1-(4-chlorophenoxy)-3,3-dimethyl-1-(1H-1,2,4-triazol-1-yl) butan-2-ole]", "values": [{"measurement": "Qa = concentration of substance A which is the MIC", "setting": "Poria placenta; a = triadimenol alone", "value": 1}, {"measurement": "Qa = concentration of substance A which is the MIC", "setting": "Gloeophyllum trabeum; a = triadimenol alone, 26° C. agar", "value": 1}]}]}
